Test results published in US11116781B2, “Composition, containing Loganin or a derivative thereof as an active ingredient for preventing, remedying, or treating female climacteric syndrome” (NINE B CO., LTD., priority 2016, dated 2021).

What was measured:
Format in all cases: in vivo
[1] = tested on: ovariectomized ddY female mouse (OVX mouse); assay: Uterine contraction and degeneration (shape, size, thickness, weight) in climacteric mouse model; conditions: 10 mg/kg/day oral, 12 weeks; for outward shape and size of the uterus: vs. OVX negative control (FIG. 8a); for thickness of the H & E-stained uterine section: vs. OVX negative control (FIG. 8b); for weight of the uterus: vs. OVX negative control (FIG. 8c)
Procedure: (§1) A 10-week-old ovariectomized ddY female mouse (OVX mouse) was used as a climacteric animal model to evaluate the in vivo efficacy of Loganin (ovariectomy after 8 weeks and 2 weeks of additional feeding for recovering conditions). Sham mouse group cut the abdomen open without ovariectomy (normal control group) was used as control group, and OVX mouse group in which physiological saline alone was administered to ovariectomized mice (negative control group) and SrCl2 mouse group in which a single compound, strontium chloride (SrCl2), was orally injected at a dose of 10 mg/kg/day (comparison group of […] compound administration) were used. 10-week-old Sham-operated and ovariectomized ddY female mice were purchased from Central Laboratory Animals Co. and transferred to a clean animal breeding area after a 1-week purifying period in the quarantine room of Experimental Animal Center in Ajou University. The weight of each mouse was measured and group separation was performed so that there was no statistically significant weight difference between the experimental groups. For the experiment, a test solution of Loganin was prepared as an aqueous solution and in order to bring in the laboratory animal center, a sterilization operation was carried out by irradiating with a gamma ray by a radiation irradiation professional company, Soyagreentec Co., Ltd. In the test group, Loganin was orally injected at a dose of 10 mg/kg/day for 12 weeks and blood estrogen level, estrogen receptor alpha expression level in uterus tissue, uterine size, body weight, and fat cell size of liver and abdominal adipose tissue were measured and analyzed.
An ordinary female climacteric symptom results in uterine contraction and degeneration due to estrogen decrease. The shape, size, thickness and weight of the uterus were observed after 12 weeks of administration of Loganin to female climacteric mouse model followed by extirpating uterus. When compared to normal Sham mouse without ovariectomy, the uterus was small (FIG. 8a), the thickness of the section was thin (FIG. 8b) and the uterine weight was light (FIG. 8c) in ovariectomized OVX mouse.

[2] = tested on: ovariectomized ddY female mouse (OVX mouse); assay: Fat accumulation in liver and fat cell size in abdominal adipose tissue (H & E staining) in climacteric mouse model; conditions: 10 mg/kg/day oral, 12 weeks; for fat accumulation in the liver: H & E staining (FIG. 10a); for increase in fat cell size in the abdominal adipose tissue: H & E staining (FIG. 10b)
Procedure: as §1
In general, when estrogen is reduced in female climacterium, new estrogen is produced from adipocytes to offset the estrogen deficiency. In this process, more fat cells are produced and can cause abdominal obesity. In other words, fat accumulation in the liver and fat cell size increase in abdominal adipose tissue are caused by the increase of insulin and leptin, which are hormone proteins related to lipid metabolism. Liver and abdominal adipose tissues of mice were extirpated and H & E stained after 12 weeks of administration of Loganin to female climacteric mouse model.

estrogen receptor alpha = assay: Estrogen receptor alpha mRNA and protein expression in uterus of climacteric mouse model; conditions: OVX mouse, 10 mg/kg/day oral, 12 weeks; for decrease of the estrogen receptor alpha protein in uterus section: immunohistochemistry, vs. OVX negative control (FIG. 7b); for decrease of mRNA expression of the estrogen receptor alpha in uterus: vs. OVX negative control (FIG. 7a)
Procedure: as §1
An ordinary female climacteric symptom results in a remarkable reduction in estrogen receptors in uterine tissue cells due to estrogen decrease. The estrogen receptor is activated by estradiol (17β-estradiol, E2) and has two classes of estrogen receptor alpha and estrogen receptor beta. In the uterus, the estrogen receptor alpha plays a more important role than the estrogen receptor beta, and during climacterium, a marked reduction in the estrogen receptor alpha causes contraction and degeneration of the uterus. The mRNA expression level of the estrogen receptor alpha gene and the estrogen receptor alpha protein expression level by immunohistochemistry of section of the uterus were analyzed after 12 weeks of administration of Loganin to climacteric mouse model followed by extirpating uterus.

[3] = tested on: ovariectomized ddY female mouse (OVX mouse); assay: Body weight and blood insulin and leptin (ELISA) in climacteric mouse model; conditions: 10 mg/kg/day oral, 12 weeks; for increase in insulin in the blood / increase in leptin in the blood: ELISA; for increase in insulin in the blood: vs. OVX negative control (FIG. 9b); for increase in leptin in the blood: vs. OVX negative control (FIG. 9c); for weight gain (body weight): vs. OVX negative control (FIG. 9a)
Procedure: as §1
An ordinary female climacteric symptom results in weight gain due to estrogen decrease. The changes in body weight of mice and the presence of insulin and leptin, the metabolic hormone proteins, were measured by ELISA after 12 weeks of administration of Loganin to female climacteric mouse model.

[4] = tested on: ovariectomized ddY female mouse (OVX mouse); assay: Blood estradiol, progesterone and cortisol by ELISA in female climacteric (OVX) mouse model; conditions: 10 mg/kg/day oral, 12 weeks; for decrease level of estradiol (17β-estradiol, E2) in the blood: vs. OVX negative control (FIG. 6a); for decrease level of progesterone in the blood: vs. OVX negative control (FIG. 6b)
Procedure: as §1
An ordinary female climacteric symptom results in a significant reduction in female hormones, i.e. estrogen and progesterone. The amount of estradiol (17β-estradiol, E2) and progesterone which are estrogen in the blood was measured by ELISA after 12 weeks of administration of Loganin to female climacteric mouse model.

## COC(=O)C1=CO[C@@H](O[C@@H]2O[C@H](CO)[C@@H](O)[C@H](O)[C@H]2O)[C@@H]2[C@@H](C)[C@@H](O)C[C@H]12 [Loganin]
[1]
  outward shape and size of the uterus: significantly inhibited
  thickness of the H & E-stained uterine section: significantly inhibited
  weight of the uterus: significantly inhibited
[2]
  fat accumulation in the liver: remarkably inhibited
  increase in fat cell size in the abdominal adipose tissue: remarkably inhibited
Estrogen receptor alpha
  decrease of the estrogen receptor alpha protein in uterus section: significantly inhibited
  decrease of mRNA expression of the estrogen receptor alpha in uterus: significantly inhibited
[3]
  increase in insulin in the blood: significantly inhibited
  increase in leptin in the blood: significantly inhibited
  weight gain (body weight): significantly inhibited
[4]
  decrease level of estradiol (17β-estradiol, E2) in the blood: significantly inhibited
  decrease level of progesterone in the blood: significantly inhibited

## [Cl-].[Cl-].[Sr+2] [SrCl2, strontium chloride]
[1]
  outward shape and size of the uterus: no difference with OVX mouse
  thickness of the H & E-stained uterine section: no difference with OVX mouse
  weight of the uterus: no difference with OVX mouse
[2]
  fat accumulation in the liver: no difference with OVX mouse
  increase in fat cell size in the abdominal adipose tissue: no difference with OVX mouse
Estrogen receptor alpha
  decrease of the estrogen receptor alpha protein in uterus section: no difference with OVX mouse
  decrease of mRNA expression of the estrogen receptor alpha in uterus: no difference with OVX mouse
[3]
  increase in insulin in the blood: no difference with OVX mouse
  increase in leptin in the blood: no difference with OVX mouse
  weight gain (body weight): no difference with OVX mouse
[4]
  decrease level of estradiol (17β-estradiol, E2) in the blood: no difference with OVX mouse
  decrease level of progesterone in the blood: no difference with OVX mouse
